25 compounds from patent US11447465B2, “Pharmaceutical compounds for treatment of medical disorders” (Achillion Pharmaceuticals, Inc., priority 2017, dated 2022) can be followed below.

Some results are limits rather than exact numbers.

The target of the assay is Human Factor D (Homo sapiens (Human), UniProt P00746). Put plainly: Human Factor D Assay. Type of assay: biochemical. Particulars: Table 5; Human Factor D 80 nM, substrate Z-L-Lys-SBzl; read-out: IC50 (Stars). How it is done:
Human Factor D (purified from human serum, Complement Technology, Inc.) at 80 nM final concentration is incubated with test compound at various concentrations for 5 min at room temperature in 50 mM Tris, 1M NaCl, pH 7.5. A synthetic substrate Z-L-Lys-SBzl and DTNB (Ellman's reagent) are added to final concentrations of 100 μM each. Absorbance at 405 nm (A405) is recorded at 30 second intervals for 30 min using a microplate spectrophotometer. IC50 values are calculated by nonlinear regression of Complement Factor D reaction rates as a function of test compound concentration.

Chain of Human Factor D (P00746 26-253): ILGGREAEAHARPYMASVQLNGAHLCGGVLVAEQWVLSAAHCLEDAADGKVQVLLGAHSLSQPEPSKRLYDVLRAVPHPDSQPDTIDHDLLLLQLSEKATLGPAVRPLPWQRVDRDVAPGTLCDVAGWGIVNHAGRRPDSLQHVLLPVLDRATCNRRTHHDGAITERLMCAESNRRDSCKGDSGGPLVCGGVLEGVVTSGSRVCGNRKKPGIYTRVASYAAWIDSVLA

As to `CC(=O)c1nn(CC(=O)N2C[C@H]3C[C@H]3[C@H]2C(=O)Nc2nc(Br)ccc2C)c2cc(C)sc12` [Compound T-2, (1R,2S,5S)-3-(2-(3-acetyl-5-methyl-1H-thieno[3,2-c]pyrazol-1-yl)acetyl)-N-(6-bromo-3-methylpyridin-2-yl)-3-azabicyclo[3.10]hexane-2-carboxamide], the IC50 was less than 1 µM.

Turning to `CC(=O)c1nn(CC(=O)N2C[C@H](F)C[C@H]2C(=O)Nc2cccc(Br)n2)c2ccc(S(C)(=N)=O)cc12` (stereo partly drawn) [Compound T-3, (2S,4R)-1-(2-(3-acetyl-5-(S-methylsulfonimidoyl)-1H-indazol-1-yl)acetyl)-N-(6-bromopyridin-2-yl)-4-fluoropyrrolidine-2-carboxamide], the IC50 is less than 1 µM.

On to `CC(=O)c1nn(CC(=O)N2C[C@H](F)C[C@H]2C(=O)Nc2cccc(Br)n2)c2cc(/S(C)=N/C(=O)C(F)(F)F)ccc12` (stereo partly drawn) [Compound T-4, (2S,4R)-1-(2-(3-acetyl-6-((E)-S-methyl-N-(2,2,2-trifluoroacetyl)sulfinimidoyl)-1H-indazol-1-yl)acetyl)-N-(6-bromopyridin-2-yl)-4-fluoropyrrolidine-2-carboxamide], for which the IC50 is less than 1 µM. Consider `CC(=O)c1nn(CC(=O)N2C[C@H](F)C[C@H]2C(=O)Nc2cccc(Br)n2)c2cc(S(C)(=N)=O)ccc12` (stereo partly drawn) [Compound T-5, (2S,4R)-1-(2-(3-acetyl-6-(S-methylsulfonimidoyl)-1H-indazol-1-yl)acetyl)-N-(6-bromopyridin-2-yl)-4-fluoropyrrolidine-2-carboxamide], for which the half-maximal inhibitory concentration (IC50) is less than 1 µM. In the case of `CC(=O)c1nn(CC(=O)N2[C@H](C(=O)Nc3cccc(Br)n3)C[C@@]3(C)C[C@@H]23)c2cc(S(C)(=N)=O)ccc12` (stereo partly drawn) [Compound T-6, (1R,3S,5R)-2-(2-(3-acetyl-6-(S-methylsulfonimidoyl)-1H-indazol-1-yl)acetyl)-N-(6-bromopyridin-2-yl)-5-methyl-2-azabicyclo[3.1.0]hexane-3-carboxamide], the IC50 is less than 1 µM. As to `CC(=O)c1nn(CC(=O)N2C[C@H]3C[C@H]3[C@H]2C(=O)Nc2cccc(Br)n2)c2cc(S(C)(=N)=O)ccc12` (stereo partly drawn) [Compound T-7, (1R,2S,5S)-3-(2-(3-acetyl-6-(S-methylsulfonimidoyl)-1H-indazol-1-yl)acetyl)-N-(6-bromopyridin-2-yl)-3-azabicyclo[3.1.0]hexane-2-carboxamide], the IC50 is less than 1 µM. For `CC(=O)c1nn(CC(=O)N2C[C@H](F)C[C@H]2C(=O)NCC23C4C5C6C4C2C6C53)c2ccccc12` (stereo partly drawn) [Compound T-8, (2S,4R)-1-(2-(3-acetyl-1H-indazol-1-yl)acetyl)-N-(cuban-1-ylmethyl)-4-fluoropyrrolidine-2-carboxamide], the 50% inhibitory concentration (IC50) lay within 1 to 10 µM. With `CC(=O)c1nn(CC(=O)N2[C@H](C(=O)Nc3nc(Br)ccc3C)C[C@@]3(C)C[C@@H]23)c2ccc(NC(=O)C3CCCCC3(F)F)cc12` (stereo partly drawn) [Compound T-9, (1R,3S,5R)-2-(2-(3-acetyl-5-(2,2-difluorocyclohexane-1-carboxamido)-1H-indazol-1-yl)acetyl)-N-(6-bromo-3-methylpyridin-2-yl)-5-methyl-2-azabicyclo[3.10]hexane-3-carboxamide], the IC50 is less than 1 µM. For `CC(=O)c1nn(CC(=O)N2C[C@H]3C[C@H]3[C@H]2C(=O)Nc2nc(Br)ccc2C2CC2)c2cc(C)sc12` [Compound T-10, (1R,2S,5S)-3-(2-(3-acetyl-5-methyl-1H-thieno[3,2-c]pyrazol-1-yl)acetyl)-N-(6-bromo-3-cyclopropylpyridin-2-yl)-3-azabicyclo[3.1.0]hexane-2-carboxamide], the IC50 is less than 1 µM.

With `CC(=O)c1nn(CC(=O)N2C[C@H](F)C[C@H]2C(=O)Nc2cccc(Br)n2)c2cc(S(C)(=O)=NC#N)ccc12` (stereo partly shown) [Compound T-11], the IC50 was less than 1 µM. With `CC(=O)c1nn(CC(=O)N2[C@H](C(=O)Nc3nc(Br)ccc3C)C[C@@]3(C)C[C@@H]23)c2ccccc12` [Compound T-13, (1R,3S,5R)-2-(2-(3-acetyl-1H-indazol-1-yl)acetyl)-N-(6-bromo-3-methylpyridin-2-yl)-5-methyl-2-azabicyclo[3.1.0]hexane-3-carboxamide], the IC50 is less than 1 µM. The figure for `CC(=O)c1ccn(CC(=O)N2C[C@H](F)C[C@H]2C(=O)Nc2cccc(Br)n2)n1` [Compound T-14, (2S,4R)-1-(2-(3-acetyl-1H-pyrazol-1-yl)acetyl)-N-(6-bromopyridin-2-yl)-4-fluoropyrrolidine-2-carboxamide] is less than 1 µM. `NC(=O)c1cc(C(F)(F)F)n(CC(=O)N2C[C@H](F)C[C@H]2C(=O)Nc2cccc(Br)n2)n1` [Compound T-15, 1-(2-((2S,4R)-2-((6-bromopyridin-2-yl)carbamoyl)-4-fluoropyrrolidin-1-yl)-2-oxoethyl)-5-(trifluoromethyl)-1H-pyrazole-3-carboxamide]: the IC50 is less than 1 µM. Regarding `COC(=O)c1cc(C(C)=O)cn1CC(=O)N1C[C@H](F)C[C@H]1C(=O)Nc1cccc(Br)n1` [Compound T-16, methyl 4-acetyl-1-(2-((2S,4R)-2-((6-bromopyridin-2-yl)carbamoyl)-4-fluoropyrrolidin-1-yl)-2-oxoethyl)-1H-pyrrole-2-carboxylate], the IC50 fell in the range of 1 to 10 µM. In the case of `CC(=O)c1cc(C(=O)O)n(CC(=O)N2C[C@H](F)C[C@H]2C(=O)Nc2cccc(Br)n2)c1` [Compound T-17, 4-acetyl-1-(2-((2S,4R)-2-((6-bromopyridin-2-yl)carbamoyl)-4-fluoropyrrolidin-1-yl)-2-oxoethyl)-1H-pyrrole-2-carboxylic acid], the IC50 is less than 1 µM. In the case of `CC(=O)c1cc(C(=O)N2CCC(F)(F)C2)n(CC(=O)N2C[C@H](F)C[C@H]2C(=O)Nc2cccc(Br)n2)c1` [Compound T-18, (2S,4R)-1-(2-(4-acetyl-2-(3,3-difluoropyrrolidine-1-carbonyl)-1H-pyrrol-1-yl)acetyl)-N-(6-bromopyridin-2-yl)-4-fluoropyrrolidine-2-carboxamide], the IC50 was greater than 10 µM. The value for `CC(=O)c1cc(C(=O)NCc2cnc(C)nc2)n(CC(=O)N2C[C@H](F)C[C@H]2C(=O)Nc2cccc(Br)n2)c1` [Compound T-19, 4-acetyl-1-(2-((2S,4R)-2-((6-bromopyridin-2-yl)carbamoyl)-4-fluoropyrrolidin-1-yl)-2-oxoethyl)-N-((2-methylpyrimidin-5-yl)methyl)-1H-pyrrole-2-carboxamide] was less than 1 µM. The value for `CC(=O)c1cn(CC(=O)N2C[C@H](F)C[C@H]2C(=O)Nc2cccc(Br)n2)c(C)n1` [Compound T-20, (2S,4R)-1-(2-(4-acetyl-2-methyl-1H-imidazol-1-yl)acetyl)-N-(6-bromopyridin-2-yl)-4-fluoropyrrolidine-2-carboxamide] was greater than 10 µM; that for `CCOC(=O)/C=C/c1cn(CC(=O)N2C[C@H](F)C[C@H]2C(=O)Nc2cccc(Br)n2)nc1C(N)=O` [Compound T-22, (E)-ethyl 3-(1-(2-((2S,4R)-2-((6-bromopyridin-2-yl)carbamoyl)-4-fluoropyrrolidin-1-yl)-2-oxoethyl)-3-carbamoyl-1H-pyrazol-4-yl)acrylate] was 1 to 10 µM; that for `CC(=O)c1cc(C(N)=O)n(CC(=O)N2C[C@H](F)C[C@H]2C(=O)Nc2cccc(Br)n2)n1` [Compound T-23, 3-acetyl-1-(2-((2S,4R)-2-((6-bromopyridin-2-yl)carbamoyl)-4-fluoropyrrolidin-1-yl)-2-oxoethyl)-1H-pyrazole-5-carboxamide] was less than 1 µM.

Turning to `CC(=O)c1cc(C(=O)NCc2cscn2)n(CC(=O)N2C[C@H](F)C[C@H]2C(=O)Nc2cccc(Br)n2)n1` [Compound T-24, 3-acetyl-1-(2-((2S,4R)-2-((6-bromopyridin-2-yl)carbamoyl)-4-fluoropyrrolidin-1-yl)-2-oxoethyl)-N-(thiazol-4-ylmethyl)-1H-pyrazole-5-carboxamide], the IC50 is less than 1 µM. As to `CC(=O)c1nn(CC(=O)N2[C@H](C(=O)Nc3nc(Br)ccc3C)C[C@@]3(C)C[C@@H]23)c2ccc(NC(=O)C3CCCC3(F)F)cc12` (stereo partly drawn) [Compound T-27, (1R,3S,5R)-2-(2-(3-acetyl-5-(2,2-difluorocyclopentane-1-carboxamido)-1H-indazol-1-yl)acetyl)-N-(6-bromo-3-methylpyridin-2-yl)-5-methyl-2-azabicyclo[3.1.0]hexane-3-carboxamide], the IC50 was less than 1 µM. For `NC(=O)c1nn(CC(=O)N2C[C@H](F)C[C@H]2C(=O)Nc2cccc(Br)n2)cc1/C=C/C(=O)NC1CC1` [Compound T-28, 1-(2-((2S,4R)-2-((6-bromopyridin-2-yl)carbamoyl)-4-fluoropyrrolidin-1-yl)-2-oxoethyl)-4-((E)-3-(cyclopropylamino)-3-oxoprop-1-en-1-yl)-1H-pyrazole-3-carboxamide], the IC50 is 1 to 10 µM. With `CC(=O)c1nn(CC(=O)N2[C@H](C(=O)Nc3nc(Br)ccc3C)C[C@@]3(C)C[C@@H]23)c2ccc(OC(=O)NC3CC3)cc12` [Compound T-32, 3-acetyl-1-(2-((1R,3S,5R)-3-((6-bromo-3-methylpyridin-2-yl)carbamoyl)-5-methyl-2-azabicyclo[3.1.0]hexan-2-yl)-2-oxoethyl)-1H-indazol-5-yl cyclopropylcarbamate], the IC50 is less than 1 µM. For the compound `CC(=O)c1nn(CC(=O)N2[C@H](C(=O)Nc3nc(Br)ccc3C)C[C@@]3(C)C[C@@H]23)c2cc(S(C)(=N)=O)ccc12` (stereo partly drawn) [Compound T-33, (1R,3S,5R)-2-(2-(3-acetyl-6-(S-methylsulfonimidoyl)-1H-indazol-1-yl)acetyl)-N-(6-bromo-3-methylpyridin-2-yl)-5-methyl-2-azabicyclo[3.1.0]hexane-3-carboxamide], the concentration for half-maximal inhibition (IC50) was less than 1 µM.

One may read the IC50 as the concentration that inhibits the measured activity by half.
